Experimental data reported in US9631170B2, “Genetically inducible hydrogen peroxide resistance and production” (University of Wyoming, priority 2011, dated 2017).

Columns and labels:
[1] = tested on: Synechococcus elongatus PCC 7942; settings: non-linear regression of dose response data, FIG. 11; wild type vs insertional katG null mutant
Experimental: These experiments generate dose response curves for growth versus H2O2-based algaecide concentration. […] EC50 for growth rate is determined from non-linear regression curves fitted to growth rate data from 5-7 experimental replicates at 5 to 7 stress doses. To fit curves, non-linear regressions are applied to the dose response data and the fit of the regression curve to the log-logistic equation will be F-tested.
One of these strains was a wild type (WT) and one was an insertional null mutant for the major cyanobacterial catalase encoded by the katG gene.

plant chloroplasts = settings: H2O2 concentrations as low as 10 μM; cited from earlier work

OO [H2O2, hydrogen peroxide]
resistance to exogenous H2O2 of wild type relative to katG null mutant lacking catalase activity [1]: ~2 fold
decrease of photosynthetic carbon fixation (plant chloroplasts): 50%
